Reference: patent publication EP3246028A1, “QUINOLINE COMPOUNDS FOR INCREASING INSULINE RELEASE” (Max-Planck-Gesellschaft zur Förderung der Wissenschaften …, priority 2016, dated 2017)
Entries after “also recorded” stand apart in the source; their conditions may differ.

What was measured:
Assay type in all cases: cell-based
RIN-5AH cells [1] = experiment: Calcium influx by FACS analysis (Fluo-4 AM fluorescence); conditions: extracellular Ca2+ present, compound 12 at 5 µM
Experimental: Calcium influx was measured by FACS analysis, similar to protocols previously described (Brewis, I. A., journal of andrology 21, 238-249, doi:10.1002/j.1939-4640.2000.tb02101.x (2000); Vines, A., Cytometry Part A 77A, 1091-1097, doi:10.1002/cyto.a.20974 (2010); Schepers, E., Journal of Immunological Methods 348, 74-82, doi:http://dx.doi.org/10.1016/j.jim.2009.07.002 (2009)).
RIN-5AH cells (30,000 cells per well) were plated in 12 well plates and incubated overnight at 37°C and 5% CO2. Cells were stained with Fluo-4 AM (molecular probes, F14201) by using a 3µM stock solution prepared in HBSS with Ca2+ and Mg2+ (HBSS++) and with addition of a final amount of 0.02% Pluronic-F127 (molecular probes, P6867). Cells were incubated with 600ul of the dye/well for 1h at 37°C, in 5% CO2. They were washed 2x with Ca2+ and Mg2+ free HBSS (HBSS--) (Gibco, 14170) before moving to the next step of the protocol (see below).
Cells were trypsinized for three minutes at 37°C and 5% CO2. The cell suspension was then diluted by adding 1ml HBSS-- / well and centrifuged for 3 minutes at 1200 RPM. Cells were resuspended in 1 mL of HBSS++ or HBSS-- before starting the measurement. Base fluorescent signal was recorded for 30 seconds followed by treatment with the various compounds by quickly adding the compounds to the FACS analysis tubes, while acquisition was not interrupted (gaps). […] Samples were measured continuously for the desired time and all measurements were completed within 40 minutes. Unstained cells and stained cells in external buffer without Ca2+ and Mg2+ (HBSS--) were used as negative controls for the treatments. Data were acquired on BD-FACSCalibur and the visualizations were prepared by FlowJo software.

[2] = tested on: RIN-5AH insulinoma beta cell line; experiment: Insulin secretion (insulin ELISA of supernatants); conditions: for insulin secretion relative to a DMSO control, compared to previously reported quinoline compounds: 5 µM compound 12 vs 50 µM quinidine or chloroquine, 10 µM levofloxacin or gatifloxacin, Figure 1
Experimental: Culture medium and supplements were purchased from Life Technologies. The RIN-5AH insulinoma beta cell line was cultured in RPMI 1640 supplemented with 10% FBS, 2 mM glutamine. All culture media contained 1x penicillin-streptomycin. Cells were grown on 15 cm culture plates at 37°C under 5% CO2 in high humidity atmosphere.
To determine the insulin level from the supernatants insulin ELISA kits from Millipore or Mercodia were used. RIN-5AH cells were seeded in 96 well or 12 well plates and grown overnight. RIN-5AH cells never reached more than 80% confluency before treatment. Cells were washed once with PBS before treatment. Cells were treated in medium for 2 hours and with 5 µM of insulin secretagogue according to the present invention, if not otherwise indicated. After treatment 100ul of supernatant was taken. Samples were assayed immediately or stored at -20°C until measurement. Dilutions were made if necessary and ELISA was subsequently performed according to the user's manual. Insulin secretion was normalized to cell number by MTT assay or to total protein amount by BCA assay (ThermoFisher Scientific, 23225). Plates were read on BioTrek Elx800 absorbance reader at 450 nm.
RIN-5AH beta cells were treated with 5 µM compound 12 or 50 µM quinidine or chloroquine according to the above described protocol (Example 1).

RIN-5AH cells [3] = experiment: Whole cell patch clamp (current clamp and voltage clamp)
Experimental: For the purpose of investigation of membrane potential changes and membrane depolarization that triggers and activate voltage dependent calcium channels in beta cells, whole cell patch clamp studies were conducted with the compounds of the present invention. RIN-5AH cells were trypsinized and suspended in medium. Cells were transferred into the recording chamber and allowed to settle down before beginning a slow perfusion with the external buffer (138.0 mM; NaCl; 5.6 mM KCl; 11.1 mM Glucose; 1.2 mM; MgCl2; 2.6 mM CaCl2; 10.0 mM HEPES). Cells were sealed and patched by the application of a gentle negative pressure. Holding membrane potential was set up to -70mV for voltage clamp experiments. After patching the cells, at least 10s of base signal was recorded for both voltage clamp and current clamp measurements. External stimulation of cells was done by using Picospritzer II instrument (Parker) with 5psi for 30s with the desired concentrations (50uM and 500uM for compound 12 and 500uM for glibenclamide as control). The total recording time was set to 1-4 minutes.

Row | Structure (SMILES) | divalent calcium cation influx (Fluo-4 AM fluorescence by FACS) (RIN-5AH cells [1]; Figure 2) | divalent calcium cation influx (Fluo-4 AM fluorescence by FACS) (RIN-5AH cells [1]; Figure 2, listed as compound 12) | insulin secretion relative to a DMSO control, compared to previously reported quinoline compounds [2] | insulin secretion relative to a DMSO control, compared to previously reported quinoline compounds ([2]; listed as compound 12) | activation at 5 µM ([2]; RIN-5AH cells, 5 µM, treated in medium for 2 hours, read-out: AV_INSULIN (percent increase in insulin secretion over a DMSO control)) | time membrane potential is kept in depolarized state / returns to its initial value (RIN-5AH cells [3]; current clamp) | depolarization rate (RIN-5AH cells [3]; current clamp, 500 µM, Figure 3) | shift in membrane potential in current clamp mode (CC) (RIN-5AH cells [3]; from -70mV, after puffs for 30s, Figures 3A and 3B) | onset of increase of inward current (RIN-5AH cells [3]; voltage clamp) | maximal inward current versus GBA treated cells (RIN-5AH cells [3]; voltage clamp, 50 µM compound 12 vs GBA) | difference of maximal inward ion current versus GBA (RIN-5AH cells [3]; voltage clamp, same concentrations of compound 12 and GBA (500 µM)) | duration of effect on inward current compared to GBA (RIN-5AH cells [3]; voltage clamp, Figure 4) | time until inward current flow returned back to baseline (RIN-5AH cells [3]; voltage clamp, Figure 4) | effect on insulin secretion ([2]; negative control quinoline compounds)
1 | COc1cc(Nc2cc(C#N)nc3cc(F)ccc23)c(Cl)cc1Cl [Compound 12, 4-(2,4-dichloro-5-methoxy-anilino)-7-fluoro-quinoline-2-carbonitrile] | induced divalent calcium cation influx | induces divalent calcium cation influx; also recorded: induced Ca2+ influx | more effective | significantly superior activity | 85% | > 240 s | dramatically increased | -20 mV | immediately | more than 5 fold | more than 10 fold | longer lasting effect | 3 min | 
2 | COc1cc(Nc2ccnc3cc(OCc4ccccc4)c(OC)cc23)c(Cl)cc1Cl [Compound 73, 7-benzyloxy-N-(2,4-dichloro-5-methoxy-phenyl)-6-methoxy-quinolin-4-amine] | did not show any increase |  |  |  |  |  |  |  |  |  |  |  |  | didn't show any effect
3 | COc1ccc(Cl)cc1C(=O)NCCc1ccc(S(=O)(=O)NC(=O)NC2CCCCC2)cc1 [GBA, glibenclamide, reference compound] | caused calcium influx, however, with a delayed response |  |  |  |  | 90 s |  |  | small delayed response |  |  |  |  | 
